# Values quoted from earlier work as cited in patent US20050272804A1, “Methods of delaying Alzheimer's disease progression using a beta-amyloid precursor protein inhibitor and a HMG CoA reductase inhibitor” (priority 2004, published 2005).
# Experiments:
# [1] = rats, i.v. dosing
# [2] = tested on: brain extracellular acetylcholine (ACh); details: striatal microdialysis, conscious freely-moving rats
# Aβ = details: Tg mice, 2.5 mg/kg, i.p.
# NOS = details: Tg mice, 2.5 mg/kg, i.p., brain extracts
# neuronal NOS (nNOS) = details: Tg mice, 2.5 mg/kg, i.p., brain extracts
# AChE = target: T1, AChE (Rattus norvegicus, UniProt P37136); details: rats, after phenserine administration
# T1 construct: from tissue
# T1 sequence (P37136 32-614): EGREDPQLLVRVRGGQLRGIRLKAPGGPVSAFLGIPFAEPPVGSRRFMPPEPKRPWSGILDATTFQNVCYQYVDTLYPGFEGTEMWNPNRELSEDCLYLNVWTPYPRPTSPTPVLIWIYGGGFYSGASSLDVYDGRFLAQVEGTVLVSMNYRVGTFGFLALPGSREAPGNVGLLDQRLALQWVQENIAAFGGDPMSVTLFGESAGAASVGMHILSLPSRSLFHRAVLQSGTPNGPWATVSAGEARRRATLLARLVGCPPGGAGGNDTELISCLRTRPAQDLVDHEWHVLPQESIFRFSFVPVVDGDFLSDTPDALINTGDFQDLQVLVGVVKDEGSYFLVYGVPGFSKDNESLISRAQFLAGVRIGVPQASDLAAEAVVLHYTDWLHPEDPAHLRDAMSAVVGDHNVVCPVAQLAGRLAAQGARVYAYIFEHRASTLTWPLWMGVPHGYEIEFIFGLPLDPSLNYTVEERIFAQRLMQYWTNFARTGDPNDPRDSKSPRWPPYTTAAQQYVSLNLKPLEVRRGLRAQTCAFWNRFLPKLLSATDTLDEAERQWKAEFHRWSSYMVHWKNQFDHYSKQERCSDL
Structure (SMILES),anticholinesterase activity (cholinesterase),brain drug levels relative to plasma [1],time to peak drug level ([1]; brain and plasma),rise in brain ACh levels [2],lowering of brain Aβ levels (Aβ),"NOS activity, treated vs control Tg groups (NOS)",levels of nNOS protein (neuronal NOS (nNOS)),half-life of AChE inhibition (AChE),inhibition of AChE (AChE)
"CN1CC[C@]2(C)c3cc(OC(=O)Nc4ccccc4)ccc3N(C)C12 (single isomer, unassigned; (+)) [(+)-Penserine]",minimal,–,–,–,–,–,–,–,–
"CN1CC[C@@]2(C)c3cc(OC(=O)Nc4ccccc4)ccc3N(C)C12 (single isomer, unassigned) [phenserine]",–,10 fold,≤ 5 min,greater than 3 fold,approximately 50%,no significant difference,increased,> 8.25 h,> 70%
